Target: T1, Lysozyme (Gallus gallus, UniProt P00698)
T1 construct: gene LYZ
Test: X-ray crystallography of soaked crystals ([…] data sets), ligand occupancy vs soak time; Kd^cryst from fitted Omax
Assay type: binding

T1 sequence (P00698 19-147): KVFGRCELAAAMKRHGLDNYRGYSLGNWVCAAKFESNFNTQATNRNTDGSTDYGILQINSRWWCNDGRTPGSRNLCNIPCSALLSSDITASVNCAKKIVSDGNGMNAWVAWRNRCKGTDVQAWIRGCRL

## CC(=O)N[C@H]1C(O)O[C@H](CO)[C@@H](O)[C@@H]1O (stereo partly shown) [NAG, N-acetyl glucosamine]
  Kd: 5.4 mM

Source: PMC4079544, “A Linear Relationship between Crystal Size and Fragment Binding Time Observed Crystallographically: Implications for Fragment Library Screening Using Acoustic Droplet Ejection” (PLoS ONE, 2014)
